According to PubChem BioAssay (NCI):
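Grown in 96-well plates, cells were treated for 48 hours with each compound at five concentrations. Insufficient inhibition: endpoint recorded as highest concentration tested. At the GI50, growth is halved. TGI: total growth inhibition.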

Assays:
Assay in all cases: NCI anticancer screen, dose series, 48 h
SK-MEL-28 melanoma = test system: SK-MEL-28 melanoma
COLO 205 colon = test system: COLO 205 colon
T-47D breast = test system: T-47D breast
OVCAR-4 ovarian = test system: OVCAR-4 ovarian
SN12C renal = test system: SN12C renal
EKVX NSCLC = test system: EKVX NSCLC
UACC-62 melanoma = test system: UACC-62 melanoma
U251 CNS = test system: U251 CNS
SNB-75 CNS = test system: SNB-75 CNS
PC-3 prostate = test system: PC-3 prostate
MDA-MB-231 breast = test system: MDA-MB-231 breast
LOX IMVI melanoma = test system: LOX IMVI melanoma
786-0 renal = test system: 786-0 renal
RPMI-8226 leukemia = test system: RPMI-8226 leukemia
UO-31 renal = test system: UO-31 renal
MALME-3M melanoma = test system: MALME-3M melanoma
NCI/ADR-RES ovarian = test system: NCI/ADR-RES ovarian
K-562 leukemia = test system: K-562 leukemia
BT-549 breast = test system: BT-549 breast
SK-MEL-2 melanoma = test system: SK-MEL-2 melanoma
HCT-116 colon = test system: HCT-116 colon
OVCAR-8 ovarian = test system: OVCAR-8 ovarian
NCI-H226 lung = test system: NCI-H226 lung
NCI-H522 lung = test system: NCI-H522 lung
HS 578T breast = test system: HS 578T breast
HCC-2998 colon = test system: HCC-2998 colon
SK-MEL-5 melanoma = test system: SK-MEL-5 melanoma
MDA-MB-435 = test system: MDA-MB-435
RXF 393 renal = test system: RXF 393 renal
SNB-19 CNS = test system: SNB-19 CNS
CCRF-CEM leukemia = test system: CCRF-CEM leukemia
HOP-62 NSCLC = test system: HOP-62 NSCLC
ACHN renal = test system: ACHN renal
NCI-H460 lung = test system: NCI-H460 lung
HCT-15 colon = test system: HCT-15 colon
OVCAR-5 ovarian = test system: OVCAR-5 ovarian
SR leukemia = test system: SR leukemia
MCF7 breast = test system: MCF7 breast
SW-620 colon = test system: SW-620 colon
IGROV1 ovarian = test system: IGROV1 ovarian
A498 renal = test system: A498 renal
SF-295 CNS = test system: SF-295 CNS
KM12 colon = test system: KM12 colon
TK-10 renal = test system: TK-10 renal
A549 NSCLC = test system: A549 NSCLC
CAKI-1 renal = test system: CAKI-1 renal
OVCAR-3 ovarian = test system: OVCAR-3 ovarian
HT29 colon = test system: HT29 colon
DU-145 prostate = test system: DU-145 prostate
SF-539 CNS = test system: SF-539 CNS
HOP-92 NSCLC = test system: HOP-92 NSCLC
UACC-257 melanoma = test system: UACC-257 melanoma
HL-60(TB) leukemia = test system: HL-60(TB) leukemia
SF-268 CNS = test system: SF-268 CNS
MOLT-4 leukemia = test system: MOLT-4 leukemia
SK-OV-3 ovarian = test system: SK-OV-3 ovarian
M14 melanoma = test system: M14 melanoma
NCI-H23 lung = test system: NCI-H23 lung

CC(Cl)CC(=O)Nc1ccc2c(c1)oc(=O)c1cc(NC(=O)CC(C)Cl)ccc12 (stereo unspecified) was tested, and the GI50 (SK-MEL-28 melanoma) was 16.4 µM, the TGI (SK-MEL-28 melanoma) was 34.2 µM and the GI50 (COLO 205 colon) was 14.4 µM. For the same molecule, the TGI (COLO 205 colon) was greater than 100 µM, the GI50 (T-47D breast) was 16.2 µM and the TGI (T-47D breast) was greater than 100 µM. It also gave a GI50 (OVCAR-4 ovarian) of 11.3 µM, a TGI (OVCAR-4 ovarian) of 29.4 µM and a GI50 (SN12C renal) of 16.4 µM. The TGI (SN12C renal) was 32 µM, the GI50 (EKVX NSCLC) was 27 µM and the TGI (EKVX NSCLC) was 88 µM. It also gave a GI50 (UACC-62 melanoma) of 15.1 µM, a TGI (UACC-62 melanoma) of 49.9 µM and a GI50 (U251 CNS) of 11.1 µM. For the same molecule, the TGI (U251 CNS) was 23.7 µM, the GI50 (SNB-75 CNS) was 15.1 µM and the TGI (SNB-75 CNS) was 48.7 µM. The GI50 (PC-3 prostate) was 12.4 µM, the TGI (PC-3 prostate) was 27.7 µM and the GI50 (MDA-MB-231 breast) was 1980 nM. It also gave a TGI (MDA-MB-231 breast) of 23.7 µM, a GI50 (LOX IMVI melanoma) of 4.46 µM and a TGI (LOX IMVI melanoma) of 21.9 µM. For the same molecule, the GI50 (786-0 renal) was 16.9 µM, the TGI (786-0 renal) was 44.1 µM and the GI50 (RPMI-8226 leukemia) was 1460 nM. It also gave a TGI (RPMI-8226 leukemia) of 23.4 µM, a GI50 (UO-31 renal) of 13.3 µM and a TGI (UO-31 renal) of 69.4 µM. It also gave a GI50 (MALME-3M melanoma) of 4.28 µM, a TGI (MALME-3M melanoma) of 21.3 µM and a GI50 (NCI/ADR-RES ovarian) of 12.4 µM. The TGI (NCI/ADR-RES ovarian) was 51 µM, the GI50 (K-562 leukemia) was 13.8 µM and the TGI (K-562 leukemia) was 33.6 µM. It also gave a GI50 (BT-549 breast) of 22.1 µM, a TGI (BT-549 breast) of 53.3 µM and a GI50 (SK-MEL-2 melanoma) of 2990 nM. It also gave a TGI (SK-MEL-2 melanoma) of 83.6 µM, a GI50 (HCT-116 colon) of 12.4 µM and a TGI (HCT-116 colon) of 40 µM. For the same molecule, the GI50 (OVCAR-8 ovarian) was 10.4 µM, the TGI (OVCAR-8 ovarian) was 28.8 µM and the GI50 (NCI-H226 lung) was 23.6 µM. It also gave a TGI (NCI-H226 lung) greater than 100 µM, a GI50 (NCI-H522 lung) of 15.2 µM and a TGI (NCI-H522 lung) of 36.8 µM. It also gave a GI50 (HS 578T breast) of 2360 nM, a TGI (HS 578T breast) of 22.6 µM and a GI50 (HCC-2998 colon) of 34.9 µM. The TGI (HCC-2998 colon) was greater than 100 µM, the GI50 (SK-MEL-5 melanoma) was 11.5 µM and the TGI (SK-MEL-5 melanoma) was 27.9 µM. The GI50 (MDA-MB-435) was 18.3 µM, the TGI (MDA-MB-435) was greater than 100 µM and the GI50 (RXF 393 renal) was 762 nM. The TGI (RXF 393 renal) was 22 µM, the GI50 (SNB-19 CNS) was 20.4 µM and the TGI (SNB-19 CNS) was 69.7 µM. For the same molecule, the GI50 (CCRF-CEM leukemia) was 11.1 µM, the TGI (CCRF-CEM leukemia) was 29 µM and the GI50 (HOP-62 NSCLC) was 11.5 µM. The TGI (HOP-62 NSCLC) was 28.2 µM, the GI50 (ACHN renal) was 12.2 µM and the TGI (ACHN renal) was 31.8 µM. For the same molecule, the GI50 (NCI-H460 lung) was 13.7 µM, the TGI (NCI-H460 lung) was 40.9 µM and the GI50 (HCT-15 colon) was 13.2 µM. The TGI (HCT-15 colon) was 45.8 µM, the GI50 (OVCAR-5 ovarian) was 16.8 µM and the TGI (OVCAR-5 ovarian) was 46.3 µM. The GI50 (SR leukemia) was 3.42 µM, the TGI (SR leukemia) was 20.7 µM and the GI50 (MCF7 breast) was 7.9 µM. The TGI (MCF7 breast) was 23.1 µM, the GI50 (SW-620 colon) was 33.3 µM and the TGI (SW-620 colon) was greater than 100 µM. The GI50 (IGROV1 ovarian) was 1730 nM, the TGI (IGROV1 ovarian) was 23.1 µM and the GI50 (A498 renal) was 16.1 µM. It also gave a TGI (A498 renal) of 38 µM, a GI50 (SF-295 CNS) of 10.1 µM and a TGI (SF-295 CNS) of 36.5 µM. It also gave a GI50 (KM12 colon) of 7.44 µM, a TGI (KM12 colon) of 24.4 µM and a GI50 (TK-10 renal) of 10.1 µM. The TGI (TK-10 renal) was 23.8 µM, the GI50 (A549 NSCLC) was 8 µM and the TGI (A549 NSCLC) was 22.2 µM. The GI50 (CAKI-1 renal) was 19.7 µM, the TGI (CAKI-1 renal) was greater than 100 µM and the GI50 (OVCAR-3 ovarian) was 14.3 µM. The TGI (OVCAR-3 ovarian) was 31.1 µM, the GI50 (HT29 colon) was 12.2 µM and the TGI (HT29 colon) was 34.5 µM. For the same molecule, the GI50 (DU-145 prostate) was 15.1 µM, the TGI (DU-145 prostate) was 34.1 µM and the GI50 (SF-539 CNS) was 14.4 µM. For the same molecule, the TGI (SF-539 CNS) was 33.1 µM, the GI50 (HOP-92 NSCLC) was 2090 nM and the TGI (HOP-92 NSCLC) was 10.7 µM. It also gave a GI50 (UACC-257 melanoma) of 23.2 µM, a TGI (UACC-257 melanoma) of 76.2 µM and a GI50 (HL-60(TB) leukemia) of 9.03 µM. For the same molecule, the TGI (HL-60(TB) leukemia) was 29.3 µM, the GI50 (SF-268 CNS) was 10.1 µM and the TGI (SF-268 CNS) was 33.3 µM. For the same molecule, the GI50 (MOLT-4 leukemia) was 10.2 µM, the TGI (MOLT-4 leukemia) was 34.4 µM and the GI50 (SK-OV-3 ovarian) was 15.6 µM. It also gave a TGI (SK-OV-3 ovarian) of 76.7 µM, a GI50 (M14 melanoma) of 12.4 µM and a TGI (M14 melanoma) of 37.5 µM. For the same molecule, the GI50 (NCI-H23 lung) was 50 µM and the TGI (NCI-H23 lung) was greater than 100 µM.
